# Measurements from patent US20240108734A1, “METHODS FOR TREATING AND AMELIORATING CANCER” (The Regents of the University of California, priority 2021, published 2024).
# Entries after “also recorded” stand apart in the source; their conditions may differ.
# How the values were obtained:
# beta-catenin = assay: FACS analysis of activated beta-catenin in LSC engrafted mice; format: in vivo, human; details: LSC engrafted mice BM; compared with vehicle controls
# Description: A lentiviral TCF/LEF reporter was utilized in human blast crisis CML cells, K562^1. Lentiviral pCDH backbone, ADAR1^WT, shControl, and shADAR1 K562 stable cell lines were transduced with pGreenFire1-TCF/LEF1 reporter (SBI) lentivirus for 72-hours and analyzed using CellTiter-Glo and One-Glo luciferase assays (Promega). Mean fluorescence intensity (MFI) of activated beta-catenin in human CD45^+ cells, HSCs (CD45^+CD34^+CD38^− Lin) and HPCs (CD45^+CD34^+[…] Lin) from engrafted mouse bone marrow and spleen was analyzed with a Miltenyi Biotec MACS Quant flow cytometer after staining with lineage, CD45, CD34 and CD38 (BD antibodies) as well as LIVE/DEAD stain, followed by 1% paraformaldehyde fixation, permeabilization with saponin, and staining with an anti-active beta-catenin antibody (Millipore cat #05-665, and BD custom conjugation) (see Supplementary Appendix).
# To assess WNT/beta-catenin activation in response to ADAR1 upregulation, a lentiviral TCF/LEF reporter was utilized in human blast crisis CML cells, K562^26. […] A minimum of 50,000 cells were plated in duplicate, lysed according to the manufacturer's protocol, and measured using preloaded protocols on a Promega GloMax Discover Microplate Reader. One-Glo luciferase readouts were normalized to corresponding CellTiter-Glo values. […]
# TERT = assay: RNA-seq of human CD45+ cells from treated BC CML mice; format: in vivo; details: surviving human CD45+ cells; imetelstat compared with vehicle; p<0.01
# Description: For gene expression and RNA editing analysis, RNA editing sites were identified in REDIportal^34 (see the Supplementary Appendix). […] Gene Set Enrichment Analysis was performed with the Bioconductor package GSVA (see the Supplementary Appendix)^36. For in vitro and in vivo experiments, the Student's t-test was utilized to evaluate statistical significance of normally distributed data and Wilcoxon tests were utilized for non-normally distributed data with a p value of <0.05.
# FastQC (Andrews, S. & Others. FastQC: a quality control tool for high throughput sequence data. (2010) was used to perform quality control on raw fastq files. Sequencing reads were aligned to the human genome (hg19) using the STAR v2.5.1a aligner^19. RSEM^20 v1.3.0 and GENCODE annotation (genocode.v19.annotation.gtf) were used for read and transcript quantification, and R BioConductor packages edgeR^21 and Limma^22 were used to implement the limma-voom^23 method for differential expression analysis at both the gene and transcript levels. The experimental design was modeled upon disease and tissue type (˜0+disease; ˜0+tissue; ˜0+disease+tissue). Significance was defined by using an adjusted p-value cut-off of 0.05 after multiple testing correction using a moderated t-statistic in Limma. […] Gene Set Enrichment Analysis was performed with the Bioconductor package GSVA^25.
# FIG. 5C. […]
# LSC = assay: Serial transplantation of BC CML LSC mouse model (LSC self-renewal); format: in vivo, mice
# Description: FIG. 4H. Self-renewal capacity of human progenitor cells was evaluated in serially transplanted mouse models. FACS analysis of percentage of live human CD34^+CD38^+Lin^− progenitor cells following serial engraftment of cells derived from mice treated with vehicle (red), mismatch (blue) or imetelstat (green).
# FIG. 4I. Kaplan-Meier survival curves of mice transplanted with CD34^+ cells selected from imetelstat treated mouse BM (green) compared with mismatch controls (blue).
substance,measurement,setting,value
imetelstat,activated beta-catenin expression / activity by FACS,beta-catenin,significant reduction; also recorded: significantly reduced
same,TERT expression by RNA-seq,TERT,reduction
same,LSC engraftment after serial transplantation,"LSC; compared with mismatch control treatment, p=0.04",significantly less
same,survival rates of serially transplanted mice (Kaplan-Meier),"LSC; compared with mismatch controls, p=0.05",longer
